Data as given in US20260083751A1, “ALLOSTERIC MODULATORS OF ANDROGEN RECEPTOR COACTIVATOR RECRUITMENT FOR CRPC THERAPY” (University of Pittsburgh – Of the Commonwealth System of …, priority 2022, published 2026).
pIC50: −log10 of the molar value. “Also recorded” adds a separate entry of the source.

Assays:
[1] = system: PSA secretion in C4-2 conditioned media; experiment: Dot blot of PSA secretion by C4-2 cells; format: cell-based; details: C4-2 cells, 20 μM 3 h, ±10 nM DHT 24 h
Method: To determine PSA secretion levels, C4-2 cells were seeded at 1.4×10^5 cells/well in 12-well plates and treated as described above for PSA cell expression experiments. […] 500 μL of conditioned media supernatant was added to the wells of 96-well to Bio-blot apparatus (BioRad, Hercules, CA) containing a nitrocellulose membrane and was allowed to pass through and attach to the membrane under gravity for 3-4 h at room temperature. The membrane was washed 1× with 500 μL TBS under vacuum, blocked with 1% BSA in TBST for 1 h, and then incubated overnight at 4° C. with the primary rabbit anti-hPSA antibody (Cell Signaling, Danvers, MA) diluted 1:1000 in TBST plus 1% BSA. Dot blots were washed 3× in 10 mL of TBST for 10 min, then incubated for 1 h with secondary goat anti-rabbit-IgG HRP conjugated antibody (Invitrogen, Carlsbad, CA) diluted 1:10,000 in TBST plus 1% Bovine Serum Albumin (BSA), washed 3× with […] of TBST for 10 min, and then developed with Pierce ECL western blotting substrate. Images of ECL dot blots were acquired on an iBright™ 1500 imaging system and quantified by iBright™ image analysis software (ThermoFisher Scientific, Waltham, MA).

[2] = biological target: T1, AR-TIF2 PPI (Homo sapiens, UniProt P10275); experiment: AR-TIF2 PPIB assay, both formats stated jointly; format: cell-based; details: for Fold reduction in relative potency in both AR-TIF2 PPIB assay formats: analog versus its parent hit; for pIC50: both assay formats, read-out: AR-TIF2 PPI inhibitor/disruptor IC50s
T1 construct: AR-LBD residues (662-919) were incorporated into one biosensor; expressed in transfected cells; host or cells: U-2 OS osteosarcoma cells, coinfected with recombinant adenoviruses
T1 sequence (P10275 662-919): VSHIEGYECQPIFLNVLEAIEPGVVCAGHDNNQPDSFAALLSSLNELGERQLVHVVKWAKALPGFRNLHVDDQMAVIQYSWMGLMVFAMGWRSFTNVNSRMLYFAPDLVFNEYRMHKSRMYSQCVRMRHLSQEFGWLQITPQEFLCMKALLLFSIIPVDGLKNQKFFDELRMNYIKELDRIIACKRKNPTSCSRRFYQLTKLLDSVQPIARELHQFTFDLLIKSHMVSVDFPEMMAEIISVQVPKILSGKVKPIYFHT
Method: AR-TIF2 Protein-Protein Interaction Biosensor Assay: The AR-TIF2 PPIB HCS assay was performed in U-2 OS osteosarcoma cells as described previously (Fancher et al., Assay Drug Dev Technol. 2016, 14:453-477; Fancher et al., Assay Drug Dev Technol. 2018, 16:297-319; Hua et al., Assay Drug Dev Technol. 2014, 12:395-418; Hua et al., Methods Mol Biol. 2018, 1683:211-227). Briefly, U-2 OS cells were coinfected with recombinant adenovirus biosensor expression constructs and seeded at 2,500 cells per well in 384-well collagen-coated microplates (Greiner Bio-One #781956) and plates were incubated overnight at 37° C. in 5% CO2 and 95% humidity. […] After the appropriate time, assay plates were fixed by transfer of 50 μL of pre-warmed (37° C.) 7.4% formaldehyde and 2 μg/mL Hoechst 33342 in PBS and incubation at room temperature for 30 minutes. Liquid was aspirated, plates were washed twice with 85 μL PBS, leaving the final wash in the plate. Plates were sealed with adhesive aluminum plate seals, and fluorescent images of three fields of view were acquired in the DAPI (Hoechst stained nuclei), FITC (TIF2-GFP) and Texas Red (AR-RFP) channels on an ImageXpress® Micro (IXM) automated HCS platform (Molecular Devices LLC, Sunnyvale, CA) using a 10× Plan Fluor 0.3 NA objective. Images were analyzed using the Translocation Enhanced (TE) image analysis module of the MetaXpress® software (Molecular Devices, LLC, San Jose, CA) as described previously (Fancher et al., Assay Drug Dev Technol. 2016, 14:453-477; Fancher et al., Assay Drug Dev Technol. 2018, 16:297-319; Hua et al., Assay Drug Dev Technol. 2014, 12:395-418; Hua et al., Methods Mol Biol. 2018, 1683:211-227).
A positional AR-TFI2 protein-protein interaction biosensor (PPIB) assay was used to identify small molecules that inhibited DHT-induced formation of AR-TIF2 PPIs and/or disrupted pre-existing AR-TIF2 PPIs (Fancher et al., Assay Drug Dev Technol 2016, 14(8):453-477; Fancher et al., Assay Drug Dev Technol 2018, 16(6):297-319; Hua et al., Assay Drug Dev Technol 2014, 12:395-418; Hua et al., Methods Mol biol 2018, 1683:211-227). AR-LBD residues (662-919) were incorporated into one biosensor and TIF2 residues (725-840) containing the 3rd NR box LXXLL motif into the second interacting biosensor partner (Id.) The AR-TIF2 PPIB recapitulates the orthosteric ligand (OSL)-induced translocation of AR from the cytoplasm into the nucleus where PPIs with TIF2 result in colocalization of both biosensors in the nucleolus. Using three libraries, a total of 143,535 compounds were screened—a 10,000-compound ChemDiv PPI focused diversity library, a 50,000-compound ChemBridge diversity library, and a 83,535-compound library provided by the NCI's Chemical Biology Consortium. The 10K and 50K diversity libraries were subsets of 142K and 810K parent libraries, enabling screening of a representative subset of >1×10^6 compounds. AR-TIF2 PPI inhibitor and disruptor actives were confirmed in the HCS assay and counter screens designed to identify and exclude nuisance/interference or non-selective compounds (Fancher et al., Assay Drug Dev Technol 2018, 16(6):297-319). […] An AR-GFP subcellular localization assay was used to exclude compounds that reduced AR expression and/or restricted its localization to the cytoplasm (Fancher et al., Assay Drug Dev Technol 2018, 16(6):297-319; Johnston et al., Assay Drug Dev Technol 2016, 14:226-239; Masodi et al., Mol Cancer Ther 2017, 16(10):2120-2129). Hits were structurally classified, clustered, and medicinal chemistry computational filters (PAINS/REOS) were used to exclude nuisance compounds and evaluate drug-like properties (Baell, J Med Chem 2010, 53(7):2719-2740; Baell, ACS Chem. Biol. 2018, 13:36-44; Johnston, Curr Opin Chem Biol 2011, 15:174-182; Walters, Adv Drug Deliv Rev 2002, 54:255-271). […]

Row | Fold reduction in relative potency in both AR-TIF2 PPIB assay formats [2] [fold] | SMILES | Endogenous and DHT-enhanced PSA secretion [1] | other results
1 |  | Cc1ccccc1-c1cc(O)c2c(c1)CN(c1nc(C(N)=O)cs1)CCO2 [Compound S1-1] | substantially reduced; also recorded: inhibition | 
2 | ~2 | Cc1nc(N)cc(N2CCOc3c(O)cc(-c4ccccc4C)cc3C2)n1 [Compound S1-2] |  | 
3 |  | Cc1ccccc1-c1cc(O)c2c(c1)CN(c1cc(N)ncn1)CCO2 [Compound S1-4] |  | pIC50 [2]: < 4.00
4 | 4 | COc1cc(-c2ccc(C)s2)cc2c1OCCN(c1nc(C(N)=O)cs1)C2 [Compound S1-5] |  | 
5 |  | Cc1nsc(NC(=O)N2CCC(Sc3ccccc3C)CC2)n1 [Compound S2-6] | substantially reduced; also recorded: inhibition | 
6 |  | Cc1nsc(NC(=O)N2CCC(Cn3ccnc3)CC2)n1 [Compound S2-7] |  | pIC50 [2]: < 4.00
7 |  | Cc1c(-c2ccccc2F)[nH]c2ccc(CNC(=O)CCc3cn[nH]c3)cc12 [Compound S3-11] | substantially reduced; also recorded: inhibition | 
8 | ~2 | Cc1c(-c2ccc(F)cc2)[nH]c2ccc(CNC(=O)c3ccc(CO)o3)cc12 [Compound S3-15] |  | 
